Experimental data: EP3811940B1, “SUBSTITUTED 4,5'-BITHIAZOLES AS INHIBITORS OF THE HUMAN DNA TOPOISOMERASE II” (Kemijski Institut, priority 2019, dated 2021)

What was measured:
[1] = target: T1, human topo IIα ATPase domain (Homo sapiens, UniProt P11388); assay: microscale thermophoresis (MST) binding; conditions: three independent runs; initial fluorescence; labelled protein 20 nM
T1 construct: The ATPase fragment with 1-453 amino acid residues was purchase from Inspiralis; purchased Inspiralis
From the text: Figure 2. […] The graph shown is representative of two independent experiments.

human topo IIα [2] = target: T2, human topo IIα (Homo sapiens, UniProt P11388); assay: kDNA decatenation assay catalysed by human topo IIα; format: biochemical; conditions: for % Decatenated Assay 1 / % Decatenated Assay 2: % of decatenated kDNA; for % Decatenated Average: average of two assays
T2 construct: purchased Inspiralis (Norwich, UK)
Description: One U of human topo II (α or β) was incubated with 200 ng kDNA in a 30 µL reaction at 37°C for 30 minutes under the following conditions: 50 mM Tris HCl (pH 7.5), 125 mM NaCl, 10 mM MgCl2, 5 mM DTT, 0.5 mM EDTA, 0.1 mg/ml bovine serum albumin (BSA) and 1 mM ATP. Compounds 1 and 9 were serially diluted in DMSO and added to the reaction mixture before the addition of the enzyme. […] Each reaction was then stopped by the addition of 30 µL chloroform/iso-amyl alcohol ([…]) and 30 µL Stop Dye (40 % sucrose (w/v), 100 mM Tris.HCl (pH 7.5), 10 mM EDTA, 0.5 µg/mL bromophenol blue), before being loaded on a 1% TAE gel run at 85 V for 90 minutes. Assays were performed at 4 concentrations of ligand: 3.9, 31.5, 125 and 500 µM. The final DMSO concentration in all reactions was 1 % (v/v).
Bands were visualized by the ethidium bromide staining for 15 minutes and destaining for subsequent 10 minutes. Gels were scanned using the documentation equipment (GeneGenius, Syngene, Cambridge, UK) and inhibition levels were calculated from band data obtained with gel scanning software (GeneTools, Syngene, Cambridge,UK). Experiment was performed in duplicates for all compounds.

human topo IIα [3] = target: T2, human topo IIα; assay: ATP hydrolysis (ATPase) assay coupled to NADH oxidation; format: biochemical
Description: To investigate if our compounds can inhibit the ATP hydrolysis, catalysed by human topo IIα, first ATP hydrolysis assay was performed for compound 1. This assay is coupled to the oxidation of NADH, which was indicated by the decrease of optical density at 340 nm. Etoposide was used as a control compound.
Compounds were analyzed using a linked assay in which the ADP produced by the hydrolysis of ATP leads to conversion of NADH to NAD by a pyruvate kinase/lactate dehydrogenase mix. The disappearance of NADH is monitored at 340 nm. A mix of assay buffer (5 µL of 10X buffer per assay: final conc. 20 mM Tris-HCl, 5 mM magnesium acetate, 125 mM potassium acetate, 2 mM DTT, pH 7.9), linear pBR322 (1.5 µL of 1mg/mL per assay), phosphoenol pyruvate (0.5 µL of 80 mM per assay), pyruvate kinase/lactate dehydrogenase mix (0.75 µL per assay), NADH (1 µL of 20 mM per assay) and water (34.35 µL per assay) was made. 41.1 µL was aliquoted into the wells of a 384-well microtitre plate. […] 5 µL of the dilution buffer or human topo IIα (200 nM stock giving 12 nM final concentration) were then added and mixed. The change in OD340 was then measured in a plate reader over a period of about 10 minutes (called the prerun). 3.4 µL of 30 mM ATP was then added and the OD340 monitored for up to 30 minutes. Assays were performed at 37 °C. The final DMSO concentration in all the reactions was 1 % (v/v). Assays were performed at 3.9, 31.5, 125, and 500 µM final concentrations of the investigated compound 1. Compound were serially diluted in DMSO and added to the reaction before the addition of the enzyme. Control compound for was Etoposide. Determination if compound 1 from class of substituted 4,5'-bithiazoles inhibits ATPase activity of human topo II enzyme was performed in collaboration with Inspiralis.

human topo IIα [4] = target: T2, human topo IIα; assay: HTS relaxation assay of human topo IIα; format: biochemical; conditions: screening at 7.8, 31.5, 125 and 500 µM
Description: The 14 selected compounds from the class of substituted 4,5'-bithiazoles were experimentally assayed if they inhibit catalytic activity of human topo IIα using an established high-throughput screening (HTS) relaxation assay for human topo IIα [24].
The HTS assays primarily served to select compounds for further evaluation.
Plate was rehydrated using wash buffer (20 mM Tris-HCl (pH = 7.6), 137 mM NaCl, 0.005 % (w/v) BSA, 0.05 % (v/v) TWEEN-20®) and biotinylated oligonucleotide was immobilized onto the wells. Next, the excess oligonucleotide was washed off with wash buffer. Enzyme assay was carried out in reaction volume of 30 µL using 0.75 µg supercoiled plasmid pNO1 as a substrate and human topo IIα. Enzyme was diluted to the appropriate concentration with dilution buffer comprised of 50 mM Tris-Hcl (pH = 7.5), 100 mM NaCl, 1 mM DTT, 0.5 mM EDTA, 50 % (v/v) glycerol and 50 µg/mL albumin. Tested compounds (0.3 µL) were added as a stock solution in DMSO and final concentration of DMSO was 1 %, respectively. Reactions were incubated at 37 °C for 30 min, and TF buffer (50 mM NaOAc (pH = 5.0), 50 mM NaCl, 50 mM MgCl2) was added to the wells and incubated at room temperature for additional 30 min to allow the triplex biotin-oligonucleotid-plasmid formation. To eliminate the aggregation and non-specific inhibition a surfactant (TWEEN-20®) was added to the reaction mixture. Unbound plasmid was washed off with TF buffer and stained with the DNA-detection Dye in the T10 buffer (10 mM Tris-HCl (pH = 8) and 1 mM EDTA) was added. After mixing, fluorescence was read using Tecan fluorimeter (Excitation: 485 nm and Emission: 535 nm). Screening was performed at the inhibitor concentrations of 7.8, 31.5, 125 and 500 µM. IC50 values were calculated using GraphPad Prism 6.0 software and represent the concentrations of inhibitors where residual activity of the enzyme was 50 % [24].

T2 sequence (P11388 whole entry): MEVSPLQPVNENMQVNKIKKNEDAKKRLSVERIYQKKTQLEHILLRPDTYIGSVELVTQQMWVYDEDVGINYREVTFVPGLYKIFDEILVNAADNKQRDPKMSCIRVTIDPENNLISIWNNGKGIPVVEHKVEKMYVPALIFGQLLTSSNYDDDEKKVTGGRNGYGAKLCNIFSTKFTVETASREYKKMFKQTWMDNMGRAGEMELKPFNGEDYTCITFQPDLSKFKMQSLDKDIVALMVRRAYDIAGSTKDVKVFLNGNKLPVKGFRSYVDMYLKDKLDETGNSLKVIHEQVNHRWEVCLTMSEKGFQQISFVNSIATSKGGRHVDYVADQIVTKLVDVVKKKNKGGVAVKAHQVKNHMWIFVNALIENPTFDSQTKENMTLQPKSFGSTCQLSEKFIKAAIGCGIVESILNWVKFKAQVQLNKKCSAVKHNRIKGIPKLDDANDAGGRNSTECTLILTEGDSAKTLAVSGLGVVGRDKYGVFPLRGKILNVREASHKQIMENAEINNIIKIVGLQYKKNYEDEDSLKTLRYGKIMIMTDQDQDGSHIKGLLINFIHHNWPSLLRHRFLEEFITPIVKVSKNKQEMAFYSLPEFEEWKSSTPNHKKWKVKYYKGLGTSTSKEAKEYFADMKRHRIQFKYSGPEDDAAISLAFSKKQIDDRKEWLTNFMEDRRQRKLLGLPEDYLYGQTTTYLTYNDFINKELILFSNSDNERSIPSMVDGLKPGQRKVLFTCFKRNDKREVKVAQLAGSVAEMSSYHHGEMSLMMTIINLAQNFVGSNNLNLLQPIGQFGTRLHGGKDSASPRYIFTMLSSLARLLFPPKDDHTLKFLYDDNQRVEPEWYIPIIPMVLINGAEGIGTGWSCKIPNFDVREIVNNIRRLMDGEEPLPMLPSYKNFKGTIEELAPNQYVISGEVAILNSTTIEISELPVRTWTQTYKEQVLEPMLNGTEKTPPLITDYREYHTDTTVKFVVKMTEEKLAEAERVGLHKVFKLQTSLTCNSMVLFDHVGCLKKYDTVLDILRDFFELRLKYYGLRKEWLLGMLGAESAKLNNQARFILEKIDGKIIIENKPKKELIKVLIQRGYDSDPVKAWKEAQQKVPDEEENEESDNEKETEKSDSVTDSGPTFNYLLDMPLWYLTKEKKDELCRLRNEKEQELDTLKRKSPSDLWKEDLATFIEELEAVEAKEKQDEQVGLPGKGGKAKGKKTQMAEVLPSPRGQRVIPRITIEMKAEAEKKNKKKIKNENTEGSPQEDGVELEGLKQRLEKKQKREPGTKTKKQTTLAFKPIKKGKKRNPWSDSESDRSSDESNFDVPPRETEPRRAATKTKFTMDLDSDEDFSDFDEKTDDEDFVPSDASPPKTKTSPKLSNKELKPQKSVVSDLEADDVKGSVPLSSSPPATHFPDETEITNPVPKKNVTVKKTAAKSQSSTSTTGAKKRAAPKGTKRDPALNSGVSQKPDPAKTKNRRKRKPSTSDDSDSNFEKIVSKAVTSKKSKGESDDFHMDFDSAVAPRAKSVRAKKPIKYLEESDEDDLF
T1 sequence (P11388 1-453): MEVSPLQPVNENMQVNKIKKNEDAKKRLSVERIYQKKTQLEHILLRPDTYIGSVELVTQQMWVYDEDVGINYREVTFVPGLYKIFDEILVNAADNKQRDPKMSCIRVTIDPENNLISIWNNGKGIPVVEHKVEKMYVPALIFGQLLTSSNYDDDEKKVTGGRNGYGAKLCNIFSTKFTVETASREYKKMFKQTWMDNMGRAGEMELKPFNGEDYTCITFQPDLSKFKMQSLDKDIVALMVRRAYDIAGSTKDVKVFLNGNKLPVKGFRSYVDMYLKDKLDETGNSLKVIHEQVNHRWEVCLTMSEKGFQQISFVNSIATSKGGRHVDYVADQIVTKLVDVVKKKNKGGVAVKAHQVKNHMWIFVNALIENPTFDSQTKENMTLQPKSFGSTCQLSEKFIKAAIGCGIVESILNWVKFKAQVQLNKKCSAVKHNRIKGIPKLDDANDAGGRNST

SMILES	% Decatenated Assay 1 (human topo IIα [2]; 3.9 µM)	% Decatenated Assay 2 (human topo IIα [2]; 3.9 µM)	% Decatenated Average (human topo IIα [2]; 3.9 µM)	% Decatenated Assay 1 (human topo IIα [2]; 31.5 µM)	% Decatenated Assay 2 (human topo IIα [2]; 31.5 µM)	% Decatenated Average (human topo IIα [2]; 31.5 µM)	% Decatenated Assay 1 (human topo IIα [2]; 125 µM)	% Decatenated Assay 2 (human topo IIα [2]; 125 µM)	% Decatenated Average (human topo IIα [2]; 125 µM)	% Decatenated Assay 1 (human topo IIα [2]; 500 µM)	% Decatenated Assay 2 (human topo IIα [2]; 500 µM)	% Decatenated Average (human topo IIα [2]; 500 µM)	inhibition at 125 µM (human topo IIα [3]; first parallel)	inhibition at 125 µM (human topo IIα [3]; second parallel)	IC50 (human topo IIα [4])	other results
Cc1nc(N)sc1-c1csc(Nc2ccc(C(F)(F)F)cc2)n1 [Compound 1, 4'-methyl-N2-(4-(trifluoromethyl)phenyl)-[4,5'-bithiazole]-2,2'-diamine]	100%	91%	95.5%	72.4%	89.4%	80.5%	0%	0%	0%	0%	0%	0%	75%	85%	33.4 µM	Kd [1]: 50.6 ± 7.6 µM; inhibition at 31.5 µM (human topo IIα [2]; 31.5 µM): 19.1%; % of inhibition of decatenation (human topo IIα [2]; 125 µM): full inhibition; % of inhibition of decatenation (human topo IIα [2]; 500 µM): full inhibition
COc1cc([C@@H]2c3cc4c(cc3[C@@H](O[C@@H]3O[C@@H]5CO[C@@H](C)O[C@H]5[C@H](O)[C@H]3O)[C@H]3COC(=O)[C@H]23)OCO4)cc(OC)c1O [Etoposide, etoposide, reference compound]													70%	63%		
CC(=O)Nc1ccc(Nc2nc(-c3sc(NC(C)=O)nc3C)cs2)cc1 [Compound 9, N-(4-((2'-acetamido-4'-methyl-[4,5'-bithiazol]-2-yl)amino)phenyl)acetamide]	98.7%	99.2%	98.9%	99.4%	97.9%	98.7%	89.5%	86.7%	88.1%	34%	31.3%	32.7%			60 µM	inhibition at 125 µM (human topo IIα [2]; 125 µM): 11.9%; inhibition at 500 µM (human topo IIα [2]; 500 µM): 67.3%
